Our source for the inhibition values is patent US9408389B2 (Rohm and Haas Company, priority 2013, dated 2016).

In assay [1] the test system is Chlorella sp. ATCC 7516. Description: Algal efficacy testing of dry paint films (modified ASTM D5589-09), Chlorella. As to conditions: 672 h. It counts as cell-based. Here is the method:
(§1) Slurries containing 33% flurochloridone were post added to a white, acrylic/silicone based outdoor paint free of biocides to give a total active ingredient concentration of 10000 and 1000 ppm respectively. These paints were then diluted with an antimicrobial free acrylic/silicone based paint and mixed to prepare targeted concentrations of antimicrobial compounds for the testing. The total biocides concentrations tested were 125, 250, 500, 1000, 2000 and 5000 ppm. After biocides addition or dilution, the paints were mixed 90 seconds with the horse power shaker (AXEL 75M3372/Agitateur SO-10MI) until uniformity was achieved. Paints containing different antimicrobial compounds at the same levels were mixed together in order to obtain the desired ratio of antimicrobial compounds. After one day, the paints were applied to Schleicher & Schuell filter paper at 280 μm wet film thickness and dried for 3 days at room temperature avoiding direct exposure to sunlight. Square discs (1.6 cm×1.6 cm) were cut out from each panel and were used as the substrate for algal efficacy tests. This sample size allowed for an agar border when the sample disc was placed into the well of the test plate. […]
(§2) At the end of the four week incubation period, the samples were scored for percent inhibition regarding visible algal growth compared to the blank sample (0% inhibition).
(§3) The SI is calculated based on F. C. […]

The test system of assay [2] is Stichococcus bacillaris SAG 379-1a / CCAP 379/1a. Description: Algal efficacy testing of dry paint films (modified ASTM D5589-09), Stichococcus. Type of assay: cell-based. The following applies: 672 h. Here is the method:
as §1, §2, §3

For the molecule `O=c1[nH]c2c(c(=O)n1C1CCCCC1)CCC2` [Lenacil, 3-cyclohexyl-1,5,6,7-tetrahydrocyclopentapyrimidine-2,4(3H)-dione], the inhibition at 5000 ppm turned out to be 45% in assay [1] and 65% in assay [2].

For `O=C1C(Cl)C(CCl)CN1c1cccc(C(F)(F)F)c1` (stereo not shown) [Flurochloridone, 3-chloro-4-(chloromethyl)-1-[3-(trifluoromethyl)phenyl]-2-pyrrolidinone], the inhibition at 2000 ppm in assay [1] (total conc 2000 ppm in paint, 4 weeks, visible algal growth vs blank) was determined as 60%; in assay [2] (Stichococcus, total conc 2000 ppm in paint, 4 weeks, visible algal growth vs blank) it was 50%.

One may read the inhibition as the relative decrease from the control value, in per cent. Read a high inhibition as a response far below the control.
